Reference: paper PMC5522267, “Targeting PEPT1: a novel strategy to improve the antitumor efficacy of doxorubicin in human hepatocellular carcinoma therapy” (Oncotarget, 2017)
Structures can show the parent of a compound that is named as a salt. Marks after values point to notes of the source that are not given here.

Experiments:
[1] = target: T1, PEPT1 (Homo sapiens, UniProt P46059); experiment: Uptake, dynamic and competitive inhibition test; assay type: cell-based; settings: inhibitors 0.01 mg/ml preincubated 30 mins, then drug 1 h
T1 construct: endogenous in cells; host or cells: Bel-7402, HepG2 (human HCC cells); Caco-2
T1 sequence (P46059 1-708): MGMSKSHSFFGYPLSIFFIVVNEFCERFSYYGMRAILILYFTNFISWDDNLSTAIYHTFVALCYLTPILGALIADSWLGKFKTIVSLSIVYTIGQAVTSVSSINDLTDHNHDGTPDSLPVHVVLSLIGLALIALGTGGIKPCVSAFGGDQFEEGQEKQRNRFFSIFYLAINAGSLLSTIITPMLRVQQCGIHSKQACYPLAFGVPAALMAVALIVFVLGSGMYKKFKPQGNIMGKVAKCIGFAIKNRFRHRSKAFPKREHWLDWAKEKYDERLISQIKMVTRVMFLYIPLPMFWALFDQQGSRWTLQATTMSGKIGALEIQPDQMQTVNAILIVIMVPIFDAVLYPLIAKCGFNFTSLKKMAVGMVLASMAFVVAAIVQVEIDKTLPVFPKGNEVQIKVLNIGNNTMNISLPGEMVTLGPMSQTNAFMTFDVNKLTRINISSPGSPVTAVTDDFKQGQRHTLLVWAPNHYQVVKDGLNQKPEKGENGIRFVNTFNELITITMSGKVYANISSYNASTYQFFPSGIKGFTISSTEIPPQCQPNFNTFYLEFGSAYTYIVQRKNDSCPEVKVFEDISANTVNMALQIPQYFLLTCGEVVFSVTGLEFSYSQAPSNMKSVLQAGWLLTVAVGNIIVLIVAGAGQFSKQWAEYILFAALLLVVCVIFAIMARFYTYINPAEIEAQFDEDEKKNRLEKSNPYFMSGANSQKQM
Description: The transport of Doxorubicin-tripeptide conjugate by PEPT1 was evaluated by time course, dynamic and competitive inhibition tests. The uptake study was performed on the confluent cell monolayer as described previously.
The uptake buffer was HBSS buffer (0.952 mM CaCl2, 5.36 mM KCl, 0.441 mM KH2PO4, 0.812 mM MgSO4, 136.7 mM NaCl, 0.385 mM Na2HPO4, 25 mM D-glucose, and 10 mM HEPES) adjusted to pH 6.0. […] Then four different initial concentrations (0.025 mg/ml, 0.05 mg/ml, 0.10 mg/ml, 0.15 mg/ml) of Doxorubicin-tripeptide conjugate were incubated with HCC cell monolayer at pH 6.0 for 120 min. At last, 0.05 mg/ml Doxorubicin-tripeptide conjugate was fed to HCC cells at different pH uptake buffer (5.4, 6, 7.4 and 8.4) for 120 min. Inhibition tests were conducted by preincubating the cells with competitive compounds Gly-Sar, Gly-Gln, Gly-Gly-Gly (0.01 mg/ml) respectively for 30 mins and then incubated with Doxorubicin-tripeptide conjugate (0.05 mg/ml) for 1 h. After removing the buffer and rapidly washing 3 times with ice-cold PBS, the cellular uptake was specifically examined with a Multi-Mode Reader (BioTek, Synergy 2, USA) with Excitation 485/20 and Emission 590/35.

[2] = tested on: HepG2; experiment: Drug concentration in tumor cells by HPLC, HepG2; assay type: cell-based, human; settings: incubated 2 hours
Description: When the density of HCC cells reached to 3 × 10^6/ml, they were trypsinized and centrifuge (4°C, 800rpm, 5min), then discarded the supernatant, dropping medium 3 ml and evenly mixed. Cell suspension was divided into three groups (control group, Doxorubicin-tripeptide conjugate group and Doxorubicin group). The drug concentration was 0.01 mg/ml for cultured 2 hours avoiding light. Then the cells obtained by centrifugation were proceeded by the following steps: washed 3 times with 1 ml normal saline, added 0.5 ml ultra pure water (Millipore), broken by ultrasonic wave, drooped in acetonitrile (Tianjin Concord Technology Co. Ltd, China) 0.5 ml, mixed, ultrasonic oscillation for 10 mins, centrifuge (1200 rpm, 15 min), take the supernatant, filtration with filter membrane, take 20 μl for HPLC analysis (Agilent 1100 HPLC system, USA).
Chromatographic conditions were as follows: chromatographic column: DIONEX Acclaim 120 C18 (2.1 × 250 mm, 5 μm 120A), Mobile phase: Acetonitrile-0.2%NaH2PO4 aqueous solution (35: 65), Velocity: 0.35 ml/min, column temperature: 30°C, DAD, 254 nm, sample size: 20 μl. […] According to the chromatographic condition, the retention time (tR), peak position time, chromatographic behavior, resolution (R), the minimum detectable concentration and the intracellular drug concentration of these two drugs were detected in turn.

[3] = Blood routine, Bel-7402 HCC mice; assay type: in vivo, nude mice; settings: high dose, after treatment
[4] = HCC mice, both dose groups
Description: After the HCC mice model was established, the nude mice were randomly assigned to three groups: Group A (control group: administration with normal saline 0.2 ml every time), group B (administration with Doxorubicin-tripeptide conjugate) and group C (administration with Doxorubicin). […] Treatment was conducted every 3 weeks for 5 weeks. Pay close attention to the general condition of the mice and their subcutaneous tumor and draw survivorship curve. The mice were weighed every 3 days and tumor volume was measured with a digital caliper using the formula: volume = (1/6).π. length × width × height. At the end of the experiment, tumor weight and volume was measured to obtained the tumor inhibitory rate and actual volume, which were calculated by the follow formula respectively: tumor inhibitory rate = (The average tumor weight of control group-experimental group)/control group × 100 %. volume = (1/6).π. length × width × height.
After the course of administration, mice were sacrificed, then the blood was collected to detect relevant indexes including quantitative serum protein, blood routine, myocardial enzymes (CK, CK-MB, LDH, AST), GSH-PX, MDA and SOD, the bone marrow taken to make bone marrow smear. What's more, the tumor, liver, jejunum and heart tissue of mice were dissected firstly for Small Animal Imaging (KODAK IS in-vivo FX, Kodak), and secondly were placed in the 10% Formaldehyde solution to prepare paraffin section, HE staining for histological examination. […] The tests of CK, CK-MB, LDH, AST, GSH-PX, MDA and SOD were completed in accordance with instructions strictly (Jiancheng Bioengineering Institute, Nanjing, China).

[5] = Blood routine, HepG2 HCC mice; assay type: in vivo, nude mice; settings: low dose, after treatment
[6] = tested on: Caco2; experiment: Drug concentration in tumor cells by HPLC, Caco2; assay type: cell-based, human; settings: incubated 2 hours

COc1cccc2c1C(=O)c1c(O)c3c(c(O)c1C2=O)C[C@@](O)(C(=O)CO)C[C@@H]3O[C@H]1C[C@H](N)[C@H](O)[C@H](C)O1 [Doxorubicin, Doxorubicin hydrochloride]
uptake in presence of inhibitors Gly-Sar, Gly-Gln or Gly-Gly-Gly [1]: not | drug concentration in tumor cells [2]: 2320 ± 30 ng/mL | PLT [3]: 81.33 ± 27.50^a ×10^9/l | RBC [3]: 6.90 ± 2.32 ×10^12/l | WBC [3]: 3.66 ± 2.58^a ×10^9/l | change of mice weight during treatment [4]: the most significant | PLT [5]: 72.53 ± 25.46 ^a ×10^9/l | RBC [5]: 7.55 ± 1.33 ×10^12/l | WBC [5]: 4.90 ± 3.60 ×10^9/l | drug concentration in tumor cells [6]: 2730 ± 40 ng/mL
